For series [1], the system named is Female ZDF rats. Put plainly: Blood glucose in female ZDF rats (PYY). Format: in vivo, rat. Conditions: Group 1: PYY IV.
From the text: (§1) Pharmacokinetic and pharmacodynamic studies: Female ZDF rats were used in these experiments and divided into 7 groups; five rats were assigned to each group, except for Group 1 which had 3 rats.
Series [2] deals with Female ZDF rats. Put plainly: Food consumption in female ZDF rats (PYY). Format: in vivo, rat. The conditions noted are these: Group 1: 0.6 mg IV.
From the text: as §1
The subject of a further series is Male ZDF rats. Put plainly: Cumulative food consumption in male ZDF rats (oxyntomodulin). The conditions noted are these: 30% oxyntomodulin/FDKP powder by pulmonary insufflation, fasted ZDF rats. Format: in vivo, rat.
Series [3] in a line: Sumatriptan pharmacokinetics in female Sprague Dawley rats. The conditions noted are these: rat, in vivo, 0.358 mg.
The subject of series [4] is patients diagnosed with type 2 diabetes. Put plainly: Meal challenge study in type 2 diabetes patients: GLP-1 levels, insulin, glucose, gastric emptying. Format: in vivo, human. The protocol: Experimental Design: The study was divided into two periods and enrolled 20 patients diagnosed with type 2 diabetes ranging in age from 20 to 64 years of age. […] Period 2 was performed after completion of Period 1. […] The results of this study are depicted in FIGS. 18-20.

In series [5] the test system is healthy adult male subjects. In words: Phase 1a clinical trial: insulin, glucose and glucagon response after inhaled GLP-1. Type of series: in vivo, human. The protocol:
GLP-1/FDKP inhalation powder was administered using the MedTone® Inhaler device, previously tested. The experiments were designed to identify the safety and tolerability of various doses of GLP-1/FDKP inhalation powder by pulmonary inhalation.
Dropouts were not replaced. These dosages assumed a body mass of 70 kg.

Series [6] deals with patients with Type 2 diabetes. In words: Phase 1 clinical trial of GLP-1/FDKP inhalation powder in fasted Type 2 diabetes patients: serum glucose. The conditions noted are these: 1.5 mg GLP-1 inhaled; attained by the 30 min time point. Type of series: in vivo, human. The procedure: […]. These studies were conducted according to Example 1 and as described herein. […]. No. 11/735,957, which disclosure is incorporated herein by reference. […].
[…]. The serum glucose levels were analyzed for each sample.

The next series relates to ZDF rats. In words: Intraperitoneal glucose tolerance test (IPGTT) in ZDF rats (exendin-4). Format: in vivo, rat. Conditions: subcutaneous injection. An excerpt: After an overnight fast, ZDF rats were given a glucose challenge by intraperitoneal injection (IPGTT).

Consider 5 compounds from patent publication US8785396B2, “Method and composition for treating migraines” (Mannkind Corporation, priority 2007, dated 2014).

Turning to peptide YY(3-36) [PYY], the “time after dosing up to which blood glucose level was lower than in the other rats” value in the series with Female ZDF rats [1] is given as “about 15 min”. Besides, the food consumption entry in the series on Female ZDF rats [2] is given as “relatively effective in reducing food consumption”.
Consider oxyntomodulin, for which the “time after dosing with significantly less food consumed than control rats” value in the series on Male ZDF rats is “up to 6 hr”.
Regarding `CNS(=O)(=O)Cc1ccc2[nH]cc(CCN(C)C)c2c1` [Sumatriptan, sumatriptan], the bioavailability (commonly dose-corrected exposure relative to a reference, in per cent) in series [3] (iv) was 100%; in series [3] (sc), 36.4%.
In the case of glucagon-like peptide 1 [GLP-1], in series [4] (GLP-1 dry powder comprising FDKP, fed and fasted groups), the insulin response entry is “more significant”. Moreover, in series [4] (GLP-1 dry powder formulation), the “blood glucose after meal challenge” value was “delayed rise in blood glucose and reduced overall exposure (AUC) to glucose”. The “decrease in plasma glucose in two of the six subjects” value in series [5] (1.5 mg GLP-1 inhaled) is “more than 1.5 mol/L”. Besides, the “mean fasting plasma glucose 20 min after dosing” value in series [5] (1.5 mg GLP-1 inhaled, reduced from 85) was 70 mg/dL. Moreover, the “largest decrease in plasma glucagon” value in series [5] (1.5 mg dose group) was “approximately 2.5 pmol/L”. The “time of maximum change in plasma glucagon” value in series [5] (after dosing, inhaled GLP-1) turned out to be 12 min. Besides, in series [5] (inhaled GLP-1), the “peak plasma insulin levels in one subject” value is on record as “exceeded 700 pmol/L”. In addition, the “peak plasma insulin response in most subjects” value in series [5] (inhaled GLP-1, dose groups 0.05-1.5 mg) lay in the range of 200 to 400 pmol/L. Moreover, in series [6], the mean glucose drop entry is “approximately 1 mmol/L”.
For exenatide, the “time blood glucose was significantly lowered following IPGTT versus air control” value in the series with ZDF rats came out at 30 min.
